Results on 90 molecules are retold here after a melting point compilation (Tetko et al.; mined from patent text by program, amines drawn as free bases though some values may be those of a salt).

As a reminder, the melting point is the temperature of the solid-liquid transition.

With `CC1(C(O)(Cc2ccccc2Cl)Cn2cncn2)CCCC1` (stereo not given), the melting point came to 110 °C. For the molecule `Cc1ccc(S(=O)(=O)N2CC3=CC(=O)CC3C2)cc1` (stereo not given), the melting point was in the range of 147 to 149 °C. For `CC(C)(Oc1ccc(CN(Cc2ccccc2)c2ccc(Cl)cc2)cc1)C(=O)O` the value was 65 to 67 °C. For `CCN(CC)c1nc(Cl)c([N+](=O)[O-])s1`, the melting point was determined as 85 °C. As for `CC(=O)NC1=CCc2ccccc21`, the figure is 137 to 138 °C; as for `CCC(OC(=O)CO)c1ccc(Cl)c2nc3n(c12)CCCN3c1ccc(Cl)cc1Cl` (stereo not given), 191 to 193 °C. As for `O=C1CCC(=O)N1CC(=O)N1c2ccccc2N(Cc2ccccc2)C(=O)[C@H]2CCC[C@H]21` (relative stereo), the figure is 212 to 213 °C; as for `O=C(O)c1c(F)cc(F)c(F)c1NCc1ccccc1`, 140 to 141 °C.

Molecule `O=[N+]([O-])c1cccc2c(Br)cc3nc(O)c(O)nc3c12` came in with a melting point greater than 300 °C. As for `NCc1ccc2c(c1)nc(CN1C(=O)N(C3CC3)Cc3ccccc31)n2CCCC(F)(F)F`, the figure is 154 °C. For `CCN(CC)C(=O)N(C)C(=O)Nc1ccccc1` the value was 88 to 89.5 °C. In turn, `CN1CC(c2ccc(S(C)(=O)=O)cc2)=C(c2cccc(Cl)c2)C1=O` came in with a melting point of 168 to 170 °C. As for `Clc1ccc(C2(CBr)OCC(c3ccc(Cl)cc3Cl)O2)cc1` (stereo not given), the figure is 82.7 °C. As for `Cc1noc(NS(=O)(=O)c2ccc(-c3ccccc3)cc2)c1Br`, the figure is 133 to 135 °C. For `CN1C(=O)C2(COc3cc4c(cc32)OCCO4)c2c(-c3cn[nH]c3)cccc21` (stereo not given) the value was 250 to 251 °C; for `CC(C)Cc1nc2ccc(Br)cc2c(-c2ccccc2)c1CO`, 116 to 118 °C.

Turning to `CS(=O)(=O)c1ccc2ccn(C3CCN(CCc4ccc(F)cc4)CC3)c2c1`, the melting point lay in the range of 133 to 135 °C. Consider `COC(=O)c1ccc2c(c1)S(=O)c1cc3c(cc1CC2)CCC3` (stereo not given), for which the melting point lay within 150 to 154 °C. In turn, `CN=C1c2ccccc2CCc2ccc(Cl)cc21` yielded a melting point of 84 to 114 °C. On to `O=Cc1ccc(C=CC(=O)N2CCc3c([nH]c4ccccc34)C2c2ccc3c(c2)CCO3)cc1` (stereo not given), for which the melting point turned out to be 175 °C. As to `CC(=O)OC1CSC(Oc2cccc3ccoc23)C(OC(C)=O)C1OC(C)=O` (stereo not given), the melting point is 152 °C. As for `CCOC(=O)Cc1cccc(-c2nc(COc3ccc(C=O)cc3OC)c(C)o2)c1`, the figure is 113 to 114 °C; as for `CN(C(=O)Nc1cccc(C(F)(F)F)c1)S(C)(=O)=O`, 72 °C. Molecule `Cc1cc(Cl)ccc1NC(=O)NCCCl` showed a melting point of 190 °C. As for `Cc1c(Cl)c(C(=O)O)cc(Cl)c1C(=O)O`, the figure is 169 to 171 °C; as for `O=C(c1ccncc1)c1cnc2cc(Cl)ccc2c1Cl`, 132 °C; as for `COc1cc2ncnc(N3CCc4ccc(Cl)cc43)c2cc1SC`, 210 °C. For `CCOc1c(C(C)=O)cnc2[nH]ncc12` the value was 245 to 248 °C; for `S=C(NCCc1ccccc1Cl)Nc1ccccn1`, 116 to 122 °C; for `Cc1ccc(CSc2nc3cscc3n2C(=O)OC(C)(C)C)nc1`, 115 to 117 °C. For `CC(=O)NC1C(NC(=NC(=O)OC(C)(C)C)NC(=O)OC(C)(C)C)C=C(C(=O)OCCCO)OC1C(O)C1COC(C)(C)O1` (stereo not given) the value was 86 to 88 °C; for `C[C@H]1NC(C)(C)CO[C@]1(O)c1cccc(Cl)c1`, 128 to 131 °C. `CCOC(=O)c1cc2ccnc(N(Cc3ccccc3)Cc3ccccc3)c2[nH]1` had a melting point of 120 to 123 °C. Molecule `O=C(Nc1ccc(N2CCOCC2)c(C(F)(F)F)c1)c1ccc(F)c(OCc2cnc3ccccc3c2)c1` gave a melting point of 81 to 84 °C. For `COc1cc2c(cc1OC(C)C)-c1c(Br)c3c(n1CC2)C(=O)N(C(C)(C)C)CCOC3` the value was 160 to 162 °C.

Molecule `O=C(Nc1ccc(Cc2ccc(O)c(O)c2)cc1)C1CSc2ccccc2C1=O` (stereo not given) came in with a melting point of 216 to 218 °C. Molecule `CN1CCN(CC(=O)Nc2cccc3c2C(=O)c2c-3n[nH]c2-c2ccc(N(C)C)cc2)CC1` had a melting point greater than 300 °C.

For `COC(=O)NCC1CN(c2ccc(-n3cnc(Cn4ccnc4)c3)c(F)c2)C(=O)O1` (stereo not given), the melting point fell in the range of 78 to 80 °C. As for `Clc1ccc(Nc2nnc(Cc3ccncc3)c3cnccc23)cc1`, the figure is 227 to 228 °C; as for `O=C(NCCO)c1ccc(-c2cccc3cc(Cc4cccc(C(F)(F)F)c4)sc23)nc1`, 160 to 161 °C. Molecule `O=C1CCC(c2ccc(CCN3CCN(c4ncccn4)CC3)cc2)N1` (stereo not given) yielded a melting point of 182 to 183 °C. Take `Cn1ccc(-c2ccc3c(ccn3-c3ccc(F)cc3)c2)n1`: the melting point was 123 to 125 °C. Molecule `O=C(CCCO)Nc1cccc(-c2cccc3cc(Cc4cccc(C(F)(F)F)c4)oc23)c1` registered a melting point of 134 to 135 °C.

Turning to `O=c1[nH]c2c(-c3ccccc3F)nnn2c2ccccc12`, the melting point was in the range of 238 to 241 °C. For `O=S(=O)(c1ccc(Cl)cc1)N1CCC[C@@H](Nc2nccc(-c3c(-c4cccc(C=NO)c4)nc4sccn34)n2)C1`, the melting point is 238 to 240 °C. For `Cc1cc(CCC2(C)NC(=O)NC2=O)cc(C(C)(C)C)c1O` (stereo not given) the value was 210 to 211 °C; for `CC[C@@H]1CN(c2c(F)c(N)c3c(=O)c(C(=O)O)cn(C4CC4)c3c2F)C[C@H]1N` (relative stereo), 195 to 196 °C; for `O=C(O)CC(NS(=O)(=O)c1ccc2ccccc2c1)c1ccccc1` (stereo not given), 123 to 126 °C.

The molecule `C#CCN1CCN(C2Cc3ccc(C)cc3Sc3ccc(F)cc32)CC1` (stereo not given) registered a melting point of 168 to 174 °C. For `CCc1cc(NC2=NCCN2C(C)=O)n(C)n1` the value was 160 to 162 °C; for `COCCN1Cc2cc(C(=O)O)ccc2N(C)C(CC(=O)O)C1=O` (stereo not given), 228 to 230 °C; for `N=C(Nc1ccc(F)c(NC(=O)/C=C/c2ccccc2C(F)(F)F)c1)c1cccs1`, 208 to 209 °C. Consider `COc1cccc(-c2nc(-c3ccccc3)c3ncc(-c4ccc(C(C)=O)cc4)cc3n2)c1`, for which the melting point was 133 to 134 °C. As for `COCC(=O)Nc1cc(C(N)=O)cc(NC(=O)COC)c1Cl`, the figure is 208 to 209 °C; as for `N#Cc1cccc(NC(=O)CN2CCC(Cc3ccccc3)CC2)c1`, 88 to 90 °C. For `O=C(O)CC(=Cc1ccccc1)C(=O)O` the value was 114 °C; for `Nc1nc2c(ncn2COCCCOC(=O)c2ccccc2)c(=O)[nH]1`, 198 to 201 °C; for `Cc1cccc(C(=O)OC2CCCCC2=O)c1` (stereo not given), 73 to 74 °C. Regarding `CCC(C#N)(COc1ccc(Cl)cc1)c1cccnc1` (stereo not given), the melting point turned out to be 82.1 °C. The molecule `O=C1C2C=CC(O2)C(=O)N1c1ccccc1` came in with a melting point of 150 to 152 °C. As to `CC(C)(C)OC(=O)NCCNC(=O)c1cnc(S)n1Cc1cc(F)cc(F)c1`, the melting point fell in the range of 178 to 179 °C. Regarding `COc1cc(-n2c(I)nnc2I)ccc1C`, the melting point is 176 °C. As for `CS(=O)(=O)c1ccc(C2=NN(S(=O)(=O)c3ccc(I)cc3)CCC2)cc1`, the figure is 198 to 204 °C; as for `CCCCCCCCCCn1c(C)cc(C)c(C#N)c1=O`, 82 to 83 °C. As for `CC(=O)Nc1ccc(C(=O)c2ccncc2)cc1`, the figure is 215 °C; as for `COC(=O)c1sccc1NC(=O)OC(C)C`, 105 to 107 °C. As for `O=C1Nc2cc(Cl)ccc2OC1CCO` (stereo not given), the figure is 135 to 138 °C; as for `CS(=O)(=O)c1ccc(-c2cc(CO)nn2C2CCCCCC2)cc1`, 116 to 118 °C; as for `COc1ccc(S(=O)(=O)c2ccccc2C(C)C)cc1`, 100 °C. `N#CCC(C#N)S(=O)(=O)c1ccc(Cl)cc1` (stereo not given) came in with a melting point of 130 to 137 °C.

In the case of `CCCc1cc2c(cc1C=Cc1ccc(C(=O)OC)cc1)C(C)(C)CCC2(C)C`, the melting point fell in the range of 120 to 121 °C. `N#Cc1cnc2c(oc3ccccc32)c1Nc1cccc(Br)c1` showed a melting point of 242 to 245 °C. For `CC12CCC3C4CCC(=O)C=C4CCC3C1CCC2=O` (stereo not given) the value was 163 to 169 °C; for `CC(=O)Nc1nc(CCc2ccc(CN3CCC(NC(=O)OC(C)(C)C)C3)cc2)cs1` (stereo not given), 131 to 132 °C. As for `COC(=O)c1nc2cc(C(F)(F)F)ccc2c(O)c1C(=O)OC`, the figure is 210 °C.

Consider `CS(=O)(=O)NCCCC1COCc2nc3c(N)nc4c(c3n21)CCCC4` (stereo not given), for which the melting point is 197 to 200 °C.

`Nc1cccc(C(=O)Nc2ccc(NNC=O)cc2)c1` showed a melting point of 177 to 178 °C. For `Cn1ncc2[nH]c3cccc(F)c3c(=O)c21` the value was greater than 300 °C. As for `COc1ncc(NC(=S)NC(=O)c2ccccc2)c(OC)n1`, the figure is 182 °C; as for `N#Cc1c(N2CCCN(c3ccccn3)CC2)cc[nH]c1=S`, 220 to 224 °C.

Molecule `CCCCc1ccc2c(c1)Cc1ccccc1-2` returned a melting point of 65 to 66.5 °C.

`CCCC(=O)c1cnc2c(C)cccc2c1Nc1ccc(Cl)cc1C` gave a melting point of 166 to 167 °C. For `COc1cc2[nH]cc(-c3cc4cc(F)cnc4n3S(=O)(=O)c3ccc(C)cc3)c2cc1OC` the value was 218 °C; for `N#Cc1c[nH]c2cc(N3CCC(N4CCCC4)CC3)c([N+](=O)[O-])cc2c1=O`, 232 to 235 °C; for `COC(=O)[C@@H](NC(=O)c1ccc(F)c(Br)c1)[C@@H](C)O`, 73 to 74 °C. For `NC(C=Cc1ccccc1[N+](=O)[O-])=NO` the value was 173 °C; for `COC(=O)c1cc(N)nc(-c2ccc(Cl)c(OC)c2F)n1`, 188 to 190 °C. For `CN(C)CCCCCNC(=O)c1ccc(-c2nnc(CSCCOc3ccccc3)o2)cc1` the value was 83 to 89 °C; for `c1ccc2c(c1)[nH]c1nc(N3CCCC3)nc(N3CCCC3)c12`, 209 to 211 °C. In turn, `CCCOc1ccc(OC)c(-c2csc(NC(=O)c3ccc(OCC(OCC)OCC)cc3)n2)c1` yielded a melting point of 107 °C.
